Source: US20050026984A1, “Substituted thieno [2,3-c] pyrazoles and their use as medicinal products” (Aventis Pharma S.A., priority 2003, published 2005)

`O=C(O)c1cc2c(-c3ccccc3)n[nH]c2s1` [Example 1, 3-phenyl-1H-thieno[2,3-c]pyrazole-5-carboxylic acid] showed a melting point of 142 °C.
